According to article PMC5660078, “Cysteinyl-tRNA synthetase governs cysteine polysulfidation and mitochondrial bioenergetics” (Nature Communications, 2017):

Experiments:
[1] = target: T1, EcCARS (Escherichia coli, UniProt P21888); test: HPE-IAM labeling LC-ESI-MS/MS of CysSSH formed, Michaelis-Menten fit; format: biochemical; conditions: persulfide synthase reaction; 50 mM HEPES pH 7.5, 25 mM KCl, 15 mM MgCl2, 37 °C, 30 s
T1 construct: gene cysS
T1 sequence (P21888 1-461): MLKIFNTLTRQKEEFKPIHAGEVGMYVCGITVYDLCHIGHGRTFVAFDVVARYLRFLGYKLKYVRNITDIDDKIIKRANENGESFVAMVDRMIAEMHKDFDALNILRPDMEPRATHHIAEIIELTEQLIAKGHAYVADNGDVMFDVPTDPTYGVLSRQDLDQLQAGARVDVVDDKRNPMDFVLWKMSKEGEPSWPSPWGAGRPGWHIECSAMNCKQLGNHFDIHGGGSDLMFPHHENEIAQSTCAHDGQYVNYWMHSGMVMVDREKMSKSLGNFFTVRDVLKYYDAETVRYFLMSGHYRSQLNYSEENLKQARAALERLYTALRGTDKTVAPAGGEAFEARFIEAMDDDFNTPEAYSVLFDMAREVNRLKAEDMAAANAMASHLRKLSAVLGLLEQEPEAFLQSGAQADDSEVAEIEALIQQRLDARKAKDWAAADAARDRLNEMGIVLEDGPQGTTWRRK

[2] = target: T2, mouse CARS1 (Mus musculus, UniProt Q9ER72); test: HPE-IAM labeling LC-MS/MS of CysSSH and CysSSSH; format: biochemical; conditions: 25 µM L-cysteine, 100 µM PLP, 37 °C, 2 h
T2 sequence (Q9ER72 2-831): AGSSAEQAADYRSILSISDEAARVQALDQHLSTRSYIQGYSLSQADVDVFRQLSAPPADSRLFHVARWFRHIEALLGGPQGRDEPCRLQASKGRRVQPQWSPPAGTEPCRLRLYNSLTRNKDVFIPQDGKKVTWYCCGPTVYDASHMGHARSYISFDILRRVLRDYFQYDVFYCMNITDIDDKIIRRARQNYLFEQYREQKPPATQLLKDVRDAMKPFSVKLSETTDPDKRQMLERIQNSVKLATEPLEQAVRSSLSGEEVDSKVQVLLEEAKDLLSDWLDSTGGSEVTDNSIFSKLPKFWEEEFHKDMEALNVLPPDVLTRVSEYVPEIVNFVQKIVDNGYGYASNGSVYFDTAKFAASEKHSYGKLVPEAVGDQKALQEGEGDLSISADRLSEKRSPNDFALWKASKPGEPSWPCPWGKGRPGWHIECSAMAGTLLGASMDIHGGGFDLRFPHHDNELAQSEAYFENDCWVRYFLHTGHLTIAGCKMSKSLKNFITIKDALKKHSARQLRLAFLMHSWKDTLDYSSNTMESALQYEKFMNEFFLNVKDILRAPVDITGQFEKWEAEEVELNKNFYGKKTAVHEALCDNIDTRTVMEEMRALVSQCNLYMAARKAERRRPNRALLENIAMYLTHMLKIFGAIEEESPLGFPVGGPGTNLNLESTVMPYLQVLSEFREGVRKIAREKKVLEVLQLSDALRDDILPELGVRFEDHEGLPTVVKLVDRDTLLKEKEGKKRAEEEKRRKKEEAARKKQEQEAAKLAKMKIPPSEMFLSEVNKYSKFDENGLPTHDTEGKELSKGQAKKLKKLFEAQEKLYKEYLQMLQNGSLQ

[3] = target: T3, human CARS2 (Homo sapiens, UniProt Q9HA77); test: DNPH derivatization, LC-ESI-MS/MS of bound PLP; format: binding; conditions: 37 °C, 1 h, 0-100 µM PLP
T3 sequence (Q9HA77 1-564): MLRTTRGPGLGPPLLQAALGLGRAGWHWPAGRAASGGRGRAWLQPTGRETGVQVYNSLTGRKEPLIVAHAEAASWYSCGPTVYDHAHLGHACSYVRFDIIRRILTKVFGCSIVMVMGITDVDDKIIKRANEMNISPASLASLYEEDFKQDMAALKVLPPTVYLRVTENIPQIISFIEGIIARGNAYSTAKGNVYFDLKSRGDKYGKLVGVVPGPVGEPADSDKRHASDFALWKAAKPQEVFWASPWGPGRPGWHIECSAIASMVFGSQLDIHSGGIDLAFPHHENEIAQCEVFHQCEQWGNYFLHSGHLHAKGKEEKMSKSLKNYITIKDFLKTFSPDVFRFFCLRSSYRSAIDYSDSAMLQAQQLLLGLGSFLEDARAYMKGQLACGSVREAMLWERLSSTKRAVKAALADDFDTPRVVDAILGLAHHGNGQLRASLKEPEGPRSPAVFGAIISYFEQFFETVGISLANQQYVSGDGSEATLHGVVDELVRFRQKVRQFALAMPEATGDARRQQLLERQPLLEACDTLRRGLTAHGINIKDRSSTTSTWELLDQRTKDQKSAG

Compound | Km [1] | HPE-IAM labeling LC-MS/MS of CysSSH and CysSSSH [2] | DNPH derivatization, LC-ESI-MS/MS of bound PLP [3]
N[C@@H](CS)C(=O)O [L-cysteine] | EcCARS is very efficient in producing CysSSH |  | 
Cc1ncc(COP(=O)(O)O)c(C=O)c1O [pyridoxal phosphate] |  | PLP-dependent CysSSH and CysSSSH biosynthesis by mouse CARS1 and human CARS2 | Precisely quantitative analysis for PLP bound to human CRAS2
